Publication PMC12030627, “Radioiodinated Bicyclic RGD Peptide Derivatives for Enhanced Tumor Accumulation” (Pharmaceuticals, 2025)
Like-named read-outs stand apart in the source and are kept apart here. Starred links: 1 amine or outer side, 2 acyl side, 3 side chain; linkers in the order of their positions; H or OH if unused. Positions of bridges follow the written chain, without caps; N, C: chain ends. Non-standard residues stand in square brackets, D forms with d. Residues, ends and D or L forms follow the SMILES beside them. *: point of attachment. Butanoyl(4-(4-I-phenyl)) = O=C(CCCc1ccc(I)cc1)*; TBMB = c1c(C[*:1])cc(C[*:3])cc1C[*:2]; Benzoyl(3-I) = O=C(c1cccc(I)c1)*; 4Abz = Nc1ccc(C(=O)O)cc1

Experiment: Biodistribution in U-87 MG tumor-bearing mice
Type: in vivo, BALB/c nu-nu mice
Settings: male, BALB/c nu-nu, mouse, iv, 37 kBq, total radioactivity, U-87 MG-bearing mice, mean ± SD, n = 3; for tissue uptake at 1 h / tissue uptake dose at 1 h: 1 h after i.v. administration; for tissue uptake at 2 h / tissue uptake dose at 2 h: 2 h after i.v. administration; for tissue uptake at 6 h / tissue uptake dose at 6 h: 6 h after i.v. administration; for tissue uptake at 5 min / tissue uptake dose at 5 min: 5 min after i.v. administration; for tissue uptake at 0.5 h / tissue uptake dose at 0.5 h: 30 min after i.v. administration
Procedure, shortened: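 Male BALB/c nu/nu mice bearing subcutaneous U-87 MG (right leg), or also A549 (left leg), tumors ~10 mm; 37 kBq radiotracer given IV in PBS-0.1% Tween 80. Single-tumor mice sampled 5 min–24 h, co-implanted mice at 2 h (or 30 min–4 h for dimer); organ radioactivity counted by NaI scintillation, expressed as %ID/g.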

[1] = liver, read-out: Radioactivity in liver
[2] = lung, read-out: Radioactivity in lung
[3] = muscle, read-out: Radioactivity in muscle
[4] = pancreas, read-out: Radioactivity in pancreas
[5] = small intestine, read-out: Radioactivity in small intestine
[6] = spleen, read-out: Radioactivity in spleen
[7] = stomach, read-out: Radioactivity in stomach
[8] = thyroid, read-out: Radioactivity in thyroid

## N=C(N)NCCC[C@@H]1NC(=O)[C@H]2CSCc3cc(cc(c3)CSC[C@H](C(N)=O)NC(=O)[C@H](CC(=O)O)NC(=O)CNC1=O)CSC[C@H](NC(=O)CNC(=O)[C@H](CO)NC(=O)c1ccc(NC(=O)CNC(=O)[C@H](CO)NC(=O)[C@@H]3CCCN3C(=O)[C@@H]3CCCN3C(=O)[C@@H]3CCCN3C(=O)[C@H](CCCCNC(=O)c3cccc(I)c3)NC(=O)CCCc3ccc(I)cc3)cc1)C(=O)N[C@@H](Cc1c[nH]cn1)C(=O)N1CCC[C@H]1C(=O)N[C@@H](CCC(N)=O)C(=O)N2 [[^125I]bcRGDiba] ({Butanoyl(4-(4-I-phenyl))}-K(Benzoyl(3-I))PPPSG[4Abz]SGCHPQ[dC]RGD[dC]-NH2; linker 10-14-18 via TBMB)
[1]
  tissue uptake at 1 h: 5.7 ± 0.7 %ID/g
  tissue uptake at 2 h: 5.1 ± 0.4 %ID/g
  tissue uptake at 6 h: 3.4 ± 0.4 %ID/g
liver, 12 h after i.v. administration, read-out: Radioactivity in liver
  tissue uptake at 12 h: 1.4 ± 0.2 %ID/g
liver, 24 h after i.v. administration, read-out: Radioactivity in liver
  tissue uptake at 24 h: 0.6 %ID/g
[2]
  tissue uptake at 5 min: 10.7 ± 1.9 %ID/g
  tissue uptake at 0.5 h: 9.4 ± 0.3 %ID/g
  tissue uptake at 1 h: 8.2 ± 0.6 %ID/g
  tissue uptake at 2 h: 7.5 ± 0.4 %ID/g
  tissue uptake at 6 h: 5.3 ± 0.5 %ID/g
lung, 12 h after i.v. administration, read-out: Radioactivity in lung
  tissue uptake at 12 h: 2.6 ± 0.3 %ID/g
lung, 24 h after i.v. administration, read-out: Radioactivity in lung
  tissue uptake at 24 h: 1.2 ± 0.1 %ID/g
[3]
  tissue uptake at 5 min: 1.4 ± 0.4 %ID/g
  tissue uptake at 0.5 h: 1.5 ± 0.2 %ID/g
  tissue uptake at 1 h: 1.5 ± 0.1 %ID/g
  tissue uptake at 2 h: 1.5 ± 0.2 %ID/g
  tissue uptake at 6 h: 1.2 ± 0.3 %ID/g
muscle, 12 h after i.v. administration, read-out: Radioactivity in muscle
  tissue uptake at 12 h: 0.5 ± 0.1 %ID/g
muscle, 24 h after i.v. administration, read-out: Radioactivity in muscle
  tissue uptake at 24 h: 0.3 %ID/g
[4]
  tissue uptake at 5 min: 2.3 ± 0.4 %ID/g
  tissue uptake at 0.5 h: 2 ± 0.2 %ID/g
  tissue uptake at 1 h: 1.5 ± 0.2 %ID/g
  tissue uptake at 2 h: 1.4 ± 0.2 %ID/g
  tissue uptake at 6 h: 1 ± 0.2 %ID/g
pancreas, 12 h after i.v. administration, read-out: Radioactivity in pancreas
  tissue uptake at 12 h: 0.5 ± 0.1 %ID/g
pancreas, 24 h after i.v. administration, read-out: Radioactivity in pancreas
  tissue uptake at 24 h: 0.2 %ID/g
[5]
  tissue uptake at 5 min: 2.3 ± 0.4 %ID/g
  tissue uptake at 0.5 h: 3 ± 0.1 %ID/g
  tissue uptake at 1 h: 4.8 ± 0.6 %ID/g
  tissue uptake at 2 h: 4.9 ± 0.3 %ID/g
  tissue uptake at 6 h: 5.6 ± 1.1 %ID/g
Small intestine, 12 h after i.v. administration, read-out: Radioactivity in small intestine
  tissue uptake at 12 h: 2.2 ± 0.5 %ID/g
Small intestine, 24 h after i.v. administration, read-out: Radioactivity in small intestine
  tissue uptake at 24 h: 0.9 ± 0.1 %ID/g
[6]
  tissue uptake at 5 min: 2.9 ± 0.5 %ID/g
  tissue uptake at 0.5 h: 3 ± 0.2 %ID/g
  tissue uptake at 1 h: 2.5 ± 0.2 %ID/g
  tissue uptake at 2 h: 2.3 ± 0.3 %ID/g
  tissue uptake at 6 h: 1.7 ± 0.5 %ID/g
spleen, 12 h after i.v. administration, read-out: Radioactivity in spleen
  tissue uptake at 12 h: 0.9 ± 0.1 %ID/g
spleen, 24 h after i.v. administration, read-out: Radioactivity in spleen
  tissue uptake at 24 h: 0.4 %ID/g
[7]
  tissue uptake dose at 5 min: 0.4 ± 0.1 %ID
  tissue uptake dose at 0.5 h: 0.8 ± 0.2 %ID
  tissue uptake dose at 1 h: 0.7 ± 0.1 %ID
  tissue uptake dose at 2 h: 0.7 ± 0.3 %ID
  tissue uptake dose at 6 h: 0.8 ± 0.2 %ID
stomach, 12 h after i.v. administration
  tissue uptake dose at 12 h: 0.2 ± 0.1 %ID
stomach, 24 h after i.v. administration
  tissue uptake dose at 24 h: 0.2 %ID
[8]
  tissue uptake dose at 5 min: 0.1 %ID
  tissue uptake dose at 0.5 h: 0.1 ± 0.1 %ID
  tissue uptake dose at 1 h: 0.1 ± 0.1 %ID
  tissue uptake dose at 2 h: 0.1 ± 0.1 %ID
  tissue uptake dose at 6 h: 0.1 %ID
